Laboratory results taken from patent US20230346889A9, “TREATMENT OF ACUTE HEART FAILURE” (AnaCardio R&D AB, priority 2019, published 2023).
Entries after “also recorded” stand apart in the source; their conditions may differ.

How the values were obtained:
[1] = test system: patients with advanced CHF and reduced EF; test: Randomized double-blind placebo-controlled trial of intravenous acyl ghrelin: non-invasive hemodynamics (Innocor, Nexfin); format: in vivo
Source text: Between 17 Feb. 2013 and 19 May 2015 we conducted a prospective double-blind, placebo-controlled, parallel-group, single centre randomized clinical trial with a one-time treatment of intravenous acyl ghrelin or placebo.
Patients were pre-screened in the Karolinska University Hospital heart failure clinic (FIG. 1) and had symptoms and signs of advanced CHF (New York Heart Association [NYHA] class III-IV) and an EF of ≤40%.
Ghrelin is a 28 amino acid peptide with a molecular weight of 3,371 g/mol. Half-time in plasma is 24-30 minutes. Concentrations in normal humans has variably been reported at 100-300 pmol/L (300-900 ng/L) for total ghrelin. There is limited data on acyl ghrelin but we recently measured acyl ghrelin in 41 healthy non-obese adults: fasting: mean±SD: 118±14 ng/L, 5-95th percentile 27-328 ng/L; trough 60 minutes post 260 kcal mixed meal: 80±12 ng/L, 5-95th percentile 21-293 ng/L. Synthetic acylated (active) human ghrelin (brand name Clinalfa Ghrelin (human) Acetate, product number 4071265; Bachem, Hauptstrasse 144, 4416 Bubendorf, Switzerland—hereafter referred to as ghrelin, was purchased from Bachem (Bubendorf, Switzerland) under license from Daiichi Sankyo (Tokyo, Japan). For each patient and treatment, a stock solution was prepared consisting of multiple vials of powder ghrelin (100 μg ghrelin/vial together with phosphate buffer), each vial dissolved in 1 mL sterile water for infusion (B. Braun, Germany) and visually inspected to be a clear and colorless solution, prior to adding 0.001 g (0.02 ml of 50 g/L stock) human albumin (for concentration 0.001 g/mL=0.1%) to each vial and further mixed with normal saline (NaCl 9 mg/ml, B. Braun, Germany). The proportion of stock solution and saline were according to patient weight (Table 2), resulting in a total volume of 100 mL (to ensure the same volume infusion for all patients). The final intravenous infusion rate was 0.50 mL/min volume (total volume 60 mL), equivalent to 0.1 μg (30 pmol)/kg/min (total amount 12.0 μg/kg) of acyl ghrelin administered to all patients randomized to ghrelin. The infusion was given for 120 minutes and continued until all measurements at 120 minutes had been completed (thus delivering some additional ghrelin). The median total infusion duration was 171 minutes. Measurements were repeated 30 minutes after stopping infusion.
Patients were randomized in parallel by block randomization in groups of 4 using paper envelopes to ghrelin or placebo and the infusion was given by antecubital vein over 120 minutes. A dedicated study nurse prepared ghrelin and placebo for infusion and patients and all other investigators were blinded. Immediately prior to, during, and after the 120 minute infusion and also 30 minutes after stopping the infusion, blood samples were drawn and symptoms, signs, echocardiography, ECG, and non-invasive hemodynamics were assessed (FIG. 2). Patients were discharged to home and returned 2-5 days later for repeat measurements. Patients were followed prospectively for morbidity and mortality outcomes.
Non-invasive resting CO in was assessed in duplicate at each measurement using the Innocor® device (Innovision, Odense, Denmark). The Innocor is a non-invasive device that measures pulmonary blood flow using an inert gas rebreathing technique, and measures VO2 directly. It has been validated for CO and VO2 at rest and exercise (Gabrielsen et al., 2002; Stahlberg et al., 2009).
The Innocor® directly measures pulmonary blood flow, VO2 and SpO2. From these variables, shunt fraction, cardiac output, SVO2 and A-V O2 difference was then calculated using standard formulas. Beat-by-beat ECG, blood pressure and the first derivative of the pressure signal (+dP/dt) were measured using a Nexfin® device (described below). Fifteen minutes of continuous beat-by-beat Nexfin data were averaged at the time of Innocor measurements. Estimated systemic vascular resistance (eSVR) was subsequently calculated as mean blood pressure/cardiac output×80. […]

[2] = test system: rat HF models; settings: cited from earlier work

SMILES: CCCCCCCC(=O)OC[C@H](NC(=O)[C@H](CO)NC(=O)CN)C(=O)N[C@@H](Cc1ccccc1)C(=O)N[C@@H](CC(C)C)C(=O)N[C@@H](CO)C(=O)N1CCC[C@H]1C(=O)N[C@@H](CCC(=O)O)C(=O)N[C@@H](Cc1cnc[nH]1)C(=O)N[C@@H](CCC(N)=O)C(=O)N[C@@H](CCCNC(=N)N)C(=O)N[C@H](C(=O)N[C@@H](CCC(N)=O)C(=O)N[C@@H](CCC(N)=O)C(=O)N[C@@H](CCCNC(=N)N)C(=O)N[C@@H](CCCCN)C(=O)N[C@@H](CCC(=O)O)C(=O)N[C@@H](CO)C(=O)N[C@@H](CCCCN)C(=O)N[C@@H](CCCCN)C(=O)N1CCC[C@H]1C(=O)N1CCC[C@H]1C(=O)N[C@@H](C)C(=O)N[C@@H](CCCCN)C(=O)N[C@@H](CC(C)C)C(=O)N[C@@H](CCC(N)=O)C(=O)N1CCC[C@H]1C(=O)N[C@@H](CCCNC(=N)N)C(=O)O)C(C)C [Ghrelin]
- A-V O2-diff ([1]; 2-5 day follow-up visit): 27.4 ± 10.0 %
- CO ([1]; 2-5 day follow-up visit): 4.21 ± 1.27 L/min
- HR ([1]; 2-5 day follow-up visit): 71.6 ± 10.8 bpm
- PBF ([1]; 2-5 day follow-up visit): 3.58 ± 0.74 L/min
- SV ([1]; 2-5 day follow-up visit): 59.9 ± 18.5 mL
- Shunt ([1]; 2-5 day follow-up visit): 15.7 ± 16.7%
- SpO2 ([1]; 2-5 day follow-up visit): 94.0 ± 3.9+ %
- SvO2 ([1]; 2-5 day follow-up visit): 66.4 ± 18.4 %
- VO2 ([1]; 2-5 day follow-up visit): 0.22 ± 0.06 L/min
- CO compared to placebo group ([1]; 2-5 days follow-up): still a significant increase in CO
- A-V O2 diff ([1]; 30 min after stop Infusion): 21.6 ± 12.1%
- CO ([1]; 30 min after stop Infusion): 4.94 ± 1.70 L/min
- PBF ([1]; 30 min after stop Infusion): 4.14 ± 0.97 L/min
- SV ([1]; 30 min after stop Infusion): 74.31 ± 26.09 mL
- Shunt ([1]; 30 min after stop Infusion): 12.6 ± 14.3%
- SpO2 ([1]; 30 min after stop Infusion): 94.7 ± 3.9%
- SvO2 ([1]; 30 min after stop Infusion): 73.3 ± 12.8%
- VO2 ([1]; 30 min after stop Infusion): 0.19 ± 0.08 L/min
- dBP ([1]; 30 min after stop Infusion): 58.9 ± 7.5 mmHg
- dP/dt ([1]; 30 min after stop Infusion): 602 ± 252 mmHg/s
- mBP ([1]; 30 min after stop Infusion): 75.5 ± 12.0 mmHg
- sBP ([1]; 30 min after stop Infusion): 105.7 ± 20.5 mmHg
- A-V O2 diff ([1]; Baseline): 27.6 ± 14.3%
- CO ([1]; Baseline): 4.08 ± 1.15 L/min
- PBF ([1]; Baseline): 3.61 ± 0.70 L/min
- SV ([1]; Baseline): 59.10 ± 17.82 mL
- Shunt ([1]; Baseline): 9.9 ± 10.6%
- SpO2 ([1]; Baseline): 95.2 ± 3.4%
- SvO2 ([1]; Baseline): 67.9 ± 14.4%
- VO2 ([1]; Baseline): 0.20 ± 0.07 L/min
- dBP ([1]; Baseline): 58.6 ± 8.4 mmHg
- dP/dt ([1]; Baseline): 742 ± 267 mmHg/s
- mBP ([1]; Baseline): 74.9 ± 11.3 mmHg
- sBP ([1]; Baseline): 104.7 ± 18.4 mmHg
- A-V O2-diff ([1]; Baseline (Table 8)): 24.4 ± 7.6%
- CO ([1]; Baseline (Table 8)): 4.08 ± 1.15 L/min
- HR ([1]; Baseline (Table 8)): 69.6 ± 9.1 bpm
- PBF ([1]; Baseline (Table 8)): 3.61 ± 0.70 L/min
- SV ([1]; Baseline (Table 8)): 59.9 ± 19.0 mL
- Shunt ([1]; Baseline (Table 8)): 9.9 ± 10.6%
- SpO2 ([1]; Baseline (Table 8)): 95.2 ± 3.4%
- SvO2 ([1]; Baseline (Table 8)): 67.7 ± 14.3%
- VO2 ([1]; Baseline (Table 8)): 0.2 ± 0.07 L/min
- A-V O2 diff ([1]; Infusion + 60 min): 23.6 ± 12.9 %
- CO ([1]; Infusion + 60 min): 4.64 ± 1.31 L/min
- PBF ([1]; Infusion + 60 min): 3.76 ± 0.76 L/min
- SV ([1]; Infusion + 60 min): 69.64 ± 22.75 mL
- Shunt ([1]; Infusion + 60 min): 16.8 ± 11.8 %
- SpO2 ([1]; Infusion + 60 min): 93.5 ± 3.5 %
- SvO2 ([1]; Infusion + 60 min): 70.0 ± 13.8%
- VO2 ([1]; Infusion + 60 min): 0.19 ± 0.07 L/min
- dBP ([1]; Infusion + 60 min): 56.5 ± 8.7 mmHg
- dP/dt ([1]; Infusion + 60 min): 535 ± 213 mmHg/s
- mBP ([1]; Infusion + 60 min): 71.4 ± 10.2 mmHg
- sBP ([1]; Infusion + 60 min): 99.0 ± 17.6 mmHg
- A-V O2 diff ([1]; Infusion + 120 min): 20.9 ± 8.5 %
- CO ([1]; Infusion + 120 min): 5.23 ± 1.98 L/min
- PBF ([1]; Infusion + 120 min): 4.08 ± 0.90 L/min
- SV ([1]; Infusion + 120 min): 79.83 ± 30.30 mL
- Shunt ([1]; Infusion + 120 min): 18.0 ± 12.3 %
- SpO2 ([1]; Infusion + 120 min): 93.4 ± 3.6 %
- SvO2 ([1]; Infusion + 120 min): 71.7 ± 10.1%
- VO2 ([1]; Infusion + 120 min): 0.19 ± 0.08 L/min
- dBP ([1]; Infusion + 120 min): 56.1 ± 10.3 mmHg
- dP/dt ([1]; Infusion + 120 min): 531 ± 191 mmHg/s
- mBP ([1]; Infusion + 120 min): 70.9 ± 13.1 mmHg
- sBP ([1]; Infusion + 120 min): 99.0 ± 21.1 mmHg
- change in HR ([1]; between baseline and 120 minutes): fell slightly
- change in calculated SV ([1]; during and after infusion): increased with infusion and fell after stop of infusion
- change in systolic, diastolic and mean arterial blood pressure ([1]; during and after infusion): no changes or differences in changes; also recorded: no changes in blood pressure; also recorded: no effect
- change in CO ([1]; during and after infusion, primary outcome): increased with infusion and fell after stop of infusion
- change in oxygen consumption (VO2) ([1]; in vivo): no change
- change in pulmonary blood flow ([1]; in vivo): increased
- change in estimated SVR ([1]; with infusion): fell and decrease
- CO and fractional shortening ([2]; rat HF models (Nagaya et al., 2001d)): increased CO and fractional shortening
- cardiac sympathetic activity and LV remodeling ([2]; rat myocardial infarction models): reduced cardiac sympathetic activity and left ventricular (LV) remodeling
